Results taken from BindingDB's records for doi:10.1124/mol.63.6.1329 (University of Milan, 2003).

The compounds below were run against Neuronal acetylcholine receptor subunit alpha-6 (Gallus gallus, UniProt P49581).
Neuronal acetylcholine receptor subunit alpha-6, sequence (P49581 whole entry): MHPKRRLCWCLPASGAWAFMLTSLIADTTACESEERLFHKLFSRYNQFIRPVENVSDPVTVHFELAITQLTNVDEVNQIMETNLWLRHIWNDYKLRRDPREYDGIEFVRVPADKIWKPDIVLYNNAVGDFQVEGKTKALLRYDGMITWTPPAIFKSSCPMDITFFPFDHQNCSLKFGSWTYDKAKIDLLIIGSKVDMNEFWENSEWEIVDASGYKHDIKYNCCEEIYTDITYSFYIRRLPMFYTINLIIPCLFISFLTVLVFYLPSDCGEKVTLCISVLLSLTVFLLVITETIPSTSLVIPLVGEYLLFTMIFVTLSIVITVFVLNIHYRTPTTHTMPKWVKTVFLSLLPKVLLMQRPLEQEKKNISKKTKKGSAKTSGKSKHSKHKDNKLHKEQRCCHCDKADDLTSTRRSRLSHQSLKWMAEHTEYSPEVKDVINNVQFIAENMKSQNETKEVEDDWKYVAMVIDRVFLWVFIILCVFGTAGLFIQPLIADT
For `CN1CCC[C@H]1c1cccnc1` [(R,S)-nicotine], the Ki was 0.02 µM. `CC[N+](CC)(CC)CCOc1ccc(C=Cc2ccccc2)cc1` [CAS_17360] was tested, and the Ki was 4.52 µM. `COc1cc2c3cc1Oc1cc(ccc1O)CC1c4c(cc(OC)c(O)c4Oc4ccc(cc4)CC3N(C)CC2)CC[N+]1(C)C` (configuration not stated) [CAS_64645] gave a Ki of 7.7 µM. With `C[N+](C)(C)CCCCCCCCCC[N+](C)(C)C` [Decamethonium Iodide] the Ki was > 10 µM. With `CC(C)C[C@@H]1NC(=O)[C@H](CC(N)=O)NC(=O)[C@H](CO)NC(=O)[C@H](Cc2cnc[nH]2)NC(=O)[C@H](CCC(=O)O)NC(=O)[C@H](CC(C)C)NC(=O)[C@H](Cc2cnc[nH]2)NC(=O)[C@@H]2CSSC[C@H](NC(=O)CN)C(=O)N[C@@H](CSSC[C@@H](C(N)=O)NC1=O)C(=O)N[C@@H](CO)C(=O)N[C@@H](CC(N)=O)C(=O)N1CCC[C@H]1C(=O)N[C@@H](C(C)C)C(=O)N2` [Gly-L-Cys(1)-L-Cys(2)-L-Ser-L-Asn-L-Pro-L-Val-L-Cys(1)-L-His-L-Leu-L-Glu-L-His-L-Ser-L-Asn-L-Leu-L-Cys(2)-NH2] the Ki was 0.066 µM. In the case of `C[N+](C)(C)CCCCCC[N+](C)(C)C` [Hexamethoniumdibromide], the Ki is reported as > 10 µM. In the case of `COC1CC=C2CCN3CCC4=C(CC(=O)OC4)C23C1` (configuration not stated) [NSC_31762], the Ki is reported as 2.8 µM.
